Columns and labels:
[1] = tested on: human retinal pigment epithelial cells (ARPE); test: Protective effect on retinal pigment epithelial cells against oxidative stress; assay type: cell-based; conditions: 2.5 μM compound, BSO 50 mM for 6 hours, Cyto X absorbance 450 nm, FIG. 7
Experimental: To determine the preventive or therapeutic effect of each KS compound of Example 1 on macular degeneration, the protection of retinal pigment epithelial cells against oxidative stress was determined.
First, human retinal pigment epithelial cells were tested using retinal pigment epithelial cells (ARPE) purchased from ATCC, USA. Equal numbers of 10,000 ARPE cells were added to each well, and after 18 hours of incubation, the cells were replaced with DMEM F-12 medium without serum (FBS).
Each KS compound was added at a concentration of 2.5 μM, and the cells were treated with buthionine sulfoximine (BSO) at a concentration of 50 mM for 6 hours to induce oxidative stress. To measure the viability of these cells, Cyto X (Cell viability assay kit) was added and the time-varying absorbance was measured at 450 nm.

[2] = Stability evaluation with human liver microsomes (MS/MS analysis); assay type: in vitro ADME; conditions: human microsomes 0.5 mg/ml, 1 μM compound, 30 min, 37° C., with NADPH; tolbutamide as control; FIG. 1
Experimental: Each KS compound in Example 1 was dissolved in 10 mM DMSO, and tolbutamide, used as a standard, was dissolved in methanol at a concentration of 10 mM.
In a glass test tube (13×100 mm), 0.1 M KH2PO4 (147.5 μl), 0.1 M MgCl2 (25 μl), and 50 μl of human […] microsomes (mixed-gender pool) at a concentration of 0.5 mg/ml purchased from Corning Life Science and each KS compound solution were mixed to a final 1 μM of each KS compound solution, pre-incubated for 3 min in a shaking water bath (37° C., 40 rpm), and then incubated for 30 min in the presence or absence of 10 mM NADPH, 25 μL.
Aliquots of 50 μl were taken before the reaction and after the reaction, and then the reaction was stopped by adding […] of acetonitrile and vortexed for 1 min. The mixture was centrifuged (4,000 rpm, 4° C.) for 20 minutes, and each supernatant was transferred to a new glass test tube and dried for 2 hours using a centrifugal concentrator. After ensuring complete drying, 200 μl of 40% acetonitrile was added to each glass test tube and resuspended by vortexing for 1 minute. The resuspension solution was centrifuged for 10 minutes (4,000 rpm, 4° C.) and 150 μl of the supernatant was taken for HPLC-UV analysis. The Agilent 1200 series was used for HPLC-UV analysis and the Agilent 6410 was used for MS/MS analysis. The conditions used for the analysis were as follows: […]

[3] = tested on: TXN, AKT1, NR4A3, NLRP3, FOXP3 genes; test: Expression changes in oxidative stress-related genes (NGS) in aged RPTEC cells; assay type: cell-based, human; conditions: 7th passage RPTEC, 2.5 μM, 6 hours, compared with 4-passage RPTEC, FIG. 5, FIG. 6
Experimental: 2.5 μM of each KS compound of Example 1 was added to relatively aged 7th passage (#7) renal tubular epithelial cells (RPTEC) cells, cultured for 6 hours, mRNA was collected, and total gene expression was analyzed using a next generation sequencer (NGS). To confirm changes in gene expression due to aging, through gene expression comparison with relatively young 4-passage (#4) RPTEC cells, genes with increased expression in young cells (TXN, AKT1, NR4A3, NLRP3, FOXP3 genes) were confirmed. The expression levels of these genes in young cells were compared to the expression change values caused by treatment with the compounds of Example 1 (senescent cells were treated with the compounds of Example 1, respectively).

[4] = tested on: intracellular reactive oxygen species (ROS) in renal tubule epithelial cells (RPTECs); test: Analysis of intracellular reactive oxygen species (ROS) in RPTECs; assay type: cell-based, human; conditions: RPTEC cells, 2.5 µM compound, 6 h; FIG. 4
Experimental: Renal tubule epithelial cells (RPTECs) were treated with each KS compound of Example 1 to determine the changes in the amount of intracellular reactive oxygen species (ROS).
RPTEC cells in culture were incubated with 2.5 µM of each KS compound for 6 h. The amount of ROS present in the cells was measured by adding Reactive Oxygen Detection Reagents (Invitrogen) and incubating for 1 h. The change in fluorescence was measured using a spectrophotometer.
FIG. 4 is a graph showing the amount of ROS remaining in RPTEC cells. It was confirmed that the amount of ROS in the cells treated with KS103 and KS104 compounds was reduced by about 30% compared to the cells treated with solvent (DMSO) alone.

[5] = tested on: Human retinal epithelial cells (ARPE); test: Cytotoxicity evaluation (EX-cytox absorbance); assay type: cell-based; conditions: different concentrations, 24 hours incubation, EX-cytox 1 hour, FIG. 3
Experimental: Human retinal epithelial cells (ARPE) in culture were treated with KS compounds of Example 1 at different concentrations and incubated for 24 hours, followed by a 1-hour reaction with EX-cytox from GOGEN, and the change in absorbance was measured.

klotho gene = test: Klotho gene mRNA expression by PCR in RPTECs; assay type: cell-based, human; conditions: 6 hours exposure, FIG. 2
Experimental: Human renal tubular epithelial cells (RPTECs) were treated with each KS compound of Example 1 at different concentrations, and mRNA was collected from the cells 6 hours later, and the mRNA expression of the klotho gene was confirmed by PCR. Renal Proximal Tubular Epithelial Cells (RPTECs) were purchased from Lonza and cultured at 37° C., 5% CO2 and used in the experiments. Each KS compound was added to the medium of the cells and after 6 hours of exposure, RNA was isolated from the cells and converted to cDNA using reverse transcriptase and amplified by PCR method to determine the expression level. As a control, DMSO was added instead of the compound.
The primers used in the experiment are listed below.
The expression levels of the bands in the gel photographs were quantified using Image J and plotted on a graph. In the gel picture, the upper band represents the secreted form of klotho, and the lower band represents the membrane form of klotho.

Structure (SMILES) | protection against oxidative stress-induced cell death [1] | microsomal stability [2] | expression of oxidative stress-related genes in aged cells versus young cells [3] | reduction of the amount of ROS in the cells compared to cells treated with solvent (DMSO) alone [4] | cytotoxicity [5] | ability to express the klotho gene compared to KS101 as well as other fluorine-bound compounds (klotho gene) | expression effect on the klotho gene (mRNA, sum of secreted and membrane form bands) (klotho gene; different concentrations, Image J quantification)
Fc1ccc(Nc2nc3cc(F)c(F)cc3o2)cc1F [KS104, N-(3,4-difluorophenyl)-5,6-difluorobenzo[d]oxazol-2-amine] | inhibited oxidative stress-induced cell death | best microsomal stability | induced to a greater extent than in young cells | about 30% | lowest cytotoxicity | more than doubled | best expression effect
Fc1ccc2nc(Nc3ccc(F)c(F)c3)oc2c1 [KS103, N-(3,4-difluorophenyl)-6-fluorobenzo[d]oxazol-2-amine] | inhibited oxidative stress-induced cell death |  |  | about 30% |  |  | 
